Each structure is given as a SMILES string.

This data set in a line: gradient 5% acetonitrile 3 min, to 50% in 2 min, to 85% in 15 min, held 3 min, 100 µL/min. Conditions: column: Zorbax Extend-C18 2.1 x 50 mm; eluents: water / acetonitrile, 0.1% formic acid. The procedure, abridged:
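Over 3 months, pure standards in mixtures of ~100 molecules were run by HPLC coupled to a quadrupole time-of-flight mass spectrometer in positive and negative ionization mode. The column was a Zorbax Extend-C18 (2.1 × 50 mm, 1.8 μm) at 100 μL/min, eluted with water and acetonitrile each holding 0.1% formic acid, with 40 μL dead and 900 μL dwell volumes. Retention time was determined from adduct peaks chosen by software and checked manually.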
In turn, `CC1CCN(C(=O)C2=NN(Cc3ccccc3)c3ccccc3S2(=O)=O)CC1` gave an RP-LC retention time of 1010 s.
On to `Cn1cnc(-c2cc3nccc(Oc4ccc(NC(=S)NC(=O)Cc5ccccc5)cc4F)c3s2)c1`, for which the RP-LC retention time came to 862 s.
Consider `Cc1oc(-c2[nH]ncc2C(=O)N2CCCC2)cc1S(=O)(=O)N1CCOCC1`, for which the RP-LC retention time was found to be 619 s.
Molecule `CCOC(=O)c1ccc(N2CC3=C(C2=O)C(c2ccc(OC)cc2)NC(=O)N3C)cc1` (centres undefined) came in with an RP-LC retention time of 878 s.
For `CCOC(=O)CNC(=O)N1CCN(c2nc3ccccc3n(Cc3ccccc3)c2=O)CC1` the value was 867 s; for `Cc1ccc(S(=O)(=O)NCc2ccccc2)cc1`, 908 s.
Consider `CCOc1ccccc1-c1noc(-c2cc(-c3ccccc3)n[nH]2)n1`, for which the RP-LC retention time is 952 s.
With `Cc1ccccc1NC(=O)Cn1nc2cc(-c3ccccc3)nc(C)n2c1=O`, the RP-LC retention time is 907 s.
As for `CCN1C(=O)c2cc(S(=O)(=O)Nc3cc(C)cc(C)c3)ccc2Oc2cccnc21`, the figure is 1080 s; as for `COCCNC(=O)c1ccccc1Sc1nccnc1Oc1ccccc1`, 852 s; as for `CCN(CC)C(=O)N1CCCC1Cc1noc(-c2cccnc2)n1` (centres undefined), 712 s.
As for `CC1=C(c2ccccc2)S(=O)(=O)N=C1N1CCCN(C(=O)CC2CCCC2)CC1`, the figure is 861 s; as for `O=C(Nc1nnc(C2CC(=O)N(c3ccccc3)C2)o1)c1ccc(Cl)cc1` (centres undefined), 746 s; as for `CCOC(=O)Cc1cc(=O)oc2cc(O)cc(O)c12`, 660 s.
In turn, `Cc1noc(C2CN(CCCc3ccccc3)CC23CCCC3)n1` (centres undefined) displayed an RP-LC retention time of 1020 s.
In turn, `O=C(CSc1ncc(-c2ccccc2)[nH]1)Nc1nc(-c2ccc(C3CCCCC3)cc2)cs1` came in with an RP-LC retention time of 1420 s.
Turning to `CN1C(=O)CSc2cnn(CC(=O)N3CCCc4ccccc43)c(=O)c21`, the RP-LC retention time worked out at 726 s.
As to `Cc1ccc(NS(=O)(=O)c2ccc(-c3nnc(C4CCC4)o3)o2)cc1F`, the RP-LC retention time stood at 962 s.
`COc1ccc(-c2ncc3c(=O)n(Cc4ccccc4Cl)c(=O)n(C)c3n2)cc1`: the RP-LC retention time was 1210 s.
As for `Cc1cc(C)c(S(=O)(=O)N2CCCC(C(=O)NCc3ccncc3)C2)c(C)c1` (centres undefined), the figure is 647 s; as for `O=C(Cc1cccc(C(F)(F)F)c1)Nc1cccn2c(C3CCC3)nnc12`, 905 s.
As for `Cc1cccc(-c2noc(CN3N=NC4C(=O)N(c5ccc(F)cc5)C(=O)C43)n2)c1` (centres undefined), the figure is 1020 s; as for `Cn1cnc2c(C(=O)Nc3ccc(F)cc3)nn(-c3ccc(Cl)cc3)c2c1=O`, 956 s; as for `COCCc1noc(C2Cc3ccccc3N2C(=O)Nc2ccc(C)c(C)c2)n1` (centres undefined), 1060 s.
For `O=C(Cn1ncc2c(c1=O)N(CC1CC1)C(=O)CS2)NCc1ccc(F)cc1` the value was 750 s; for `COc1ccc(OC)c(NC(=O)CN2CCc3[nH]c4c(C)cc(F)cc4c(=O)c3C2)c1`, 640 s.
`Cn1cc(CN2CCC(C(=O)N3CCN(c4ccccn4)CC3)CC2)c2cc(Cl)ccc21`: the RP-LC retention time worked out at 584 s.
On to `COc1ccccc1N1C(=O)CC(Sc2ccccc2N)C1=O` (centres undefined), for which the RP-LC retention time was 865 s.
`Cc1cccc(CN2CCCn3nc(C(=O)NC4CC4)cc3C2=O)c1` had an RP-LC retention time of 744 s.
`COc1ccc(N2CCn3c2nn(CC(=O)NCc2ccco2)c(=O)c3=O)cc1`: the RP-LC retention time turned out to be 634 s.
For `Cc1ccc(CNC(=O)C2CCN(c3nc(C4CCC4)nc4csc(C)c34)CC2)cc1C`, the RP-LC retention time worked out at 808 s.
`CCN1CCN(c2cc(C(=O)O)c3cc(NS(=O)(=O)c4cccc(C)c4)ccc3n2)CC1` registered an RP-LC retention time of 596 s.
`COc1cccc(CN2N=C(C(=O)N3CCOCC3)S(=O)(=O)c3ccccc32)c1` registered an RP-LC retention time of 800 s.
`CCc1nc2cc(N3CCC(C(=O)NC(C)C)CC3)cnc2nc1CC` came in with an RP-LC retention time of 704 s.
As for `Cc1nn(-c2nc(-c3ccc(F)cc3)cs2)c(C)c1CC(=O)Nc1ccc(Cl)cc1`, the figure is 1190 s; as for `O=C(NCc1ccncc1)c1ccc(-c2ccc(N3CCSCC3)nc2)cc1`, 574 s.
`CC(C)CNC(=O)C1Cn2cccc2C(=O)N1CC(C)C` (centres undefined) displayed an RP-LC retention time of 750 s.
`O=C(NCc1ccco1)c1ccc(-n2nnc3cccnc32)cc1Cl` yielded an RP-LC retention time of 793 s.
Regarding `O=C(NCCn1c(=O)n(Cc2ccccc2)c2cccnc21)c1cccs1`, the RP-LC retention time stood at 744 s.
Regarding `Cc1noc(C)c1CNC(=O)c1cc(F)ccc1Cl`, the RP-LC retention time stood at 726 s.
Consider `CCN(C1CCOCC1)C1CN(S(=O)(=O)c2cccc(F)c2)C1`, for which the RP-LC retention time is 597 s.
The molecule `CCOC(=O)c1c(C)[nH]c(C)c1S(=O)(=O)N1CCC(C(=O)N2CCc3ccccc3C2)CC1` returned an RP-LC retention time of 837 s.
`COc1ccc(NS(=O)(=O)c2c[nH]c3ncccc23)cc1Cl` displayed an RP-LC retention time of 729 s.
In turn, `O=C(O)c1cccc2c1CCN2S(=O)(=O)c1ccccc1` had an RP-LC retention time of 793 s.
As for `O=C(CN1c2ccc(F)cc2-c2ccccc2S1(=O)=O)Nc1ccc(F)c(F)c1`, the figure is 974 s; as for `O=C(Nc1ccc2c(c1)OCCO2)N1CCCC1c1nc(-c2ccc(F)cc2F)no1` (centres undefined), 882 s.
Turning to `Cc1noc(C2(NC(=O)c3cc(F)cc(F)c3)CCCCC2)n1`, the RP-LC retention time amounted to 916 s.
Turning to `CCCCn1c(N)c(C(=O)OCC)c2nc3ccccc3nc21`, the RP-LC retention time was found to be 613 s.
As for `Cn1c(CNC(=O)c2cn3ccccc3n2)nc2ccccc21`, the RP-LC retention time is 564 s.
For `O=C(c1cnn2c(-c3ccc4c(c3)OCO4)ccnc12)N1CCN(c2ccccn2)CC1` the value was 598 s; for `O=C(NCc1cccnc1)C1CCCN(c2ncnc3c2nc2n3CCCCC2)C1` (centres undefined), 577 s; for `COc1ccc(-c2csc(C)n2)cc1S(=O)(=O)N1CCc2ccccc2C1`, 970 s.
The molecule `O=[N+]([O-])c1ccc(CSc2nnc(-c3cccc(S(=O)(=O)N4CCCC4)c3)o2)cc1` gave an RP-LC retention time of 937 s.
With `COc1cccc(CNC(=O)NCCC2CCN(S(=O)(=O)c3ccc(C)cc3)CC2)c1`, the RP-LC retention time was found to be 873 s.
For the molecule `O=C(Cn1c(SCc2cccc(F)c2)nc2cccnc21)N1CCCC1`, the RP-LC retention time stood at 647 s.
The molecule `CC(C)Cn1c(=O)c(N2CCN(S(=O)(=O)c3cccc(F)c3)CC2)nc2ccncc21` displayed an RP-LC retention time of 636 s.
Molecule `O=C(O)c1cn(CCOc2ccccc2)c2ccccc12` returned an RP-LC retention time of 885 s.
In turn, `COc1ccc(-c2cn3c(CC(=O)Nc4ccc5c(c4)OCCO5)csc3n2)cc1OC` gave an RP-LC retention time of 684 s.
The molecule `Cc1ccc(-c2cc3n(n2)CCCN(C(=O)c2cnccn2)C3)cc1` yielded an RP-LC retention time of 766 s.

The values above are taken from the METLIN SMRT retention time set (Domingo-Almenara et al. 2019).
